Experimental data: patent US9469615B2, “Quinoxalines and AZA-quinoxalines as CRTH2 receptor modulators” (Merck Sharp & Dohme Corp., priority 2010, dated 2016)

What follows are molecules tested against T1, hCRTH2 (Homo sapiens, UniProt Q9Y5Y4) (assay: Radioligand binding assay ([3H]PGD2 competition, HEK-hCRTH2 membranes)). Settings: [3H]PGD2 competition, Table B.
T1 construct: expressed in transfected cells; host or cells: HEK (human embryonic kidney) cells expressing hCRTH2; membrane preparation
T1 sequence (Q9Y5Y4 1-395): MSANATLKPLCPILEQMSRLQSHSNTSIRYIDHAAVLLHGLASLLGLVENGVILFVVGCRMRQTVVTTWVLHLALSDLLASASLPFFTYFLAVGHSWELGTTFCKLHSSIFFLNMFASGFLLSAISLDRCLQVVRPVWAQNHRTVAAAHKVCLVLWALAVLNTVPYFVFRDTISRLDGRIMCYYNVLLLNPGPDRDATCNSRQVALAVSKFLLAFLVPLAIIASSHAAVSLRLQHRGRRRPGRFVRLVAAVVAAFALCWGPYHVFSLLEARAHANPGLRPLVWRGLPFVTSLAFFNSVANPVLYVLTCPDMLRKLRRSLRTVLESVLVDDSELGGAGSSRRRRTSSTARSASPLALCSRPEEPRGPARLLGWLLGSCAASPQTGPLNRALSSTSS
Outline: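 Competition against 3.0 nM [3H]PGD2 was run for 60 min at room temperature in pH 7.4 Tris-HCl buffer with EDTA, 2 mM MnCl2 and 1% DMSO, using 8-20 μg HEK-hCRTH2 membrane protein. 10 μM PGD2 set non-specific binding; filter-bound counts were read by scintillation.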

Row | Compound | Ki [nM]
1 | C[C@H](NC(=O)c1ccc2nc(-c3ccc(Cl)cc3)c(CC3CCC(C(=O)O)C3)nc2c1)c1ccccc1 (stereo partly drawn) [compound 404, 3-((3-(4-chlorophenyl)-7-(((S)-1-phenylethyl)carbamoyl)quinoxalin-2-yl)methyl)cyclopentane-carboxylic acid] | 2.1 to 20
2 | O=C(N[C@@H](c1ccccc1)C(F)(F)F)c1ccc2nc(-c3ccc(Cl)cc3)c(CC3CCC(C(=O)O)C3)nc2c1 (stereo partly drawn) [compound 405, 3-((3-(4-chlorophenyl)-7-(((S)-2,2,2-trifluoro-1-phenylethyl)carbamoyl)quinoxalin-2-yl)methyl)cyclopentane-carboxylic acid] | 2.1 to 20
3 | O=C(N[C@@H](c1ccc(Cl)cc1)C(F)(F)F)c1ccc2nc(-c3ccc(Cl)cc3)c(CC3CCC(C(=O)O)C3)nc2c1 (stereo partly drawn) [compound 406, 3-((3-(4-chlorophenyl)-7-(((S)-1-(4-chlorophenyl)-2,2,2-trifluoroethyl)carbamoyl)quinoxalin-2-yl)methyl)cyclopentane-carboxylic acid] | 2.1 to 20
4 | C[C@H](NC(=O)c1ccc2nc(-c3ccc(Cl)cc3)c(CC3CCC(C(=O)O)C3)nc2c1)c1ccc(F)cc1 (stereo partly drawn) [compound 407, 3-((3-(4-chlorophenyl)-7-(((S)-1-(4-fluorophenyl)ethyl)carbamoyl)quinoxalin-2-yl)methyl)cyclopentane-carboxylic acid] | 2.1 to 20
5 | CC(CCCc1nc2cc(C(=O)N[C@H](C)c3ccc(F)cc3)ccc2nc1-c1ccc(Cl)cc1)C(=O)O (stereo partly drawn) [compound 408, 5-(3-(4-chlorophenyl)-7-(((R)-1-(4-fluorophenyl)ethyl)carbamoyl)quinoxalin-2-yl)-2-methylpentanoic acid] | 0.1 to 2
6 | CC(CCCc1nc2cc(C(=O)N[C@H](C)c3ccc(F)cc3)ccc2nc1-c1ccc(Cl)cc1)C(=O)O (stereo partly drawn) [compound 409, 5-(3-(4-chlorophenyl)-7-(((R)-1-(4-fluorophenyl)ethyl)carbamoyl)quinoxalin-2-yl)-2-methylpentanoic acid] | 20.1 to 200
7 | C[C@@H](NC(=O)c1ccc2nc(-c3cccc(C#N)c3)c(CCCCC(=O)O)nc2c1)c1ccc(F)cc1 [compound 410, (R)-5-(3-(3-cyanophenyl)-7-((1-(4-fluorophenyl)ethyl)carbamoyl)quinoxalin-2-yl)pentanoic acid] | 20.1 to 200
8 | C[C@@H](NC(=O)c1ccc2nc(-c3ccc(F)c(F)c3)c(CCCCC(=O)O)nc2c1)c1ccc(F)cc1 [compound 411] | 20.1 to 200
9 | C[C@@H](NC(=O)c1ccc2nc(-c3ccc(Cl)cc3)c(CCCCC(=O)O)nc2c1)c1cc(F)cc(F)c1 [compound 412, (R)-5-(3-(4-chlorophenyl)-7-((1-(3,5-difluorophenyl)ethyl)carbamoyl)quinoxalin-2-yl) pentanoic acid] | 0.1 to 2
10 | C[C@H](NC(=O)c1ccc2nc(-c3ccc(Cl)cc3)c(CCCCC(=O)O)nc2c1)c1cc(F)cc(F)c1 [compound 413, (S)-5-(3-(4-chlorophenyl)-7-((1-(3,5-difluorophenyl)ethyl)carbamoyl)quinoxalin-2-yl) pentanoic acid] | 0.1 to 2
11 | O=C(O)CCCCc1nc2cc(C(=O)N3CCC(c4ccc(F)cc4)CC3)ccc2nc1-c1ccc(Cl)cc1 [compound 414, 5-(3-(4-chlorophenyl)-7-(4-(4-fluorophenyl)piperidine-1-carbonyl)quinoxalin-2-yl)pentanoic acid] | 0.1 to 2
12 | O=C(O)CCCCc1nc2cc(C(=O)N3CCC(c4ccc(Cl)cc4)CC3)ccc2nc1-c1ccc(Cl)cc1 [compound 415, 5-(3-(4-chlorophenyl)-7-(4-(4-chlorophenyl)piperidine-1-carbonyl)quinoxalin-2-yl)pentanoic acid] | 0.1 to 2
13 | C[C@@H](NC(=O)c1ccc2nc(-c3ccc(Cl)cc3Cl)c(CCCCC(=O)O)nc2c1)c1ccc(F)cc1 [compound 416, (R)-5-(3-(2,4-dichlorophenyl)-7-((1-(4-fluorophenyl)ethyl)carbamoyl)quinoxalin-2-yl)pentanoic acid] | 2.1 to 20
14 | C[C@@H](NC(=O)c1ccc2nc(-c3ccc(C(F)(F)F)cc3Cl)c(CCCCC(=O)O)nc2c1)c1ccc(F)cc1 [compound 417, (R)-5-(3-(2-chloro-4-(trifluoromethyl)phenyl)-7-((1-(4-fluorophenyl)ethyl)carbamoyl)quinoxalin-2-yl) pentanoic acid] | 2.1 to 20
15 | C[C@@H](NC(=O)c1ccc2nc(-c3ccc(Cl)cc3)c(CCC(=O)O)nc2c1)c1ccc(F)cc1 [compound 418, (R)-3-(3-(4-chlorophenyl)-7-((1-(4-fluorophenyl)ethyl)carbamoyl)quinoxalin-2-yl) propanoic acid] | 20.1 to 200
16 | O=C(O)CCCCc1nc2cc(C(=O)N3CC(c4cccc(F)c4)C3)ccc2nc1-c1ccc(Cl)cc1 [compound 419, 5-(3-(4-chlorophenyl)-7-(3-(3-fluorophenyl)azetidine-1-carbonyl)quinoxalin-2-yl)pentanoic acid] | 0.1 to 2

Row | Compound | Ki [nM]
17 | O=C(O)CCCCc1nc2cc(C(=O)N3CC(c4ccc(F)c(F)c4)C3)ccc2nc1-c1ccc(Cl)cc1 [compound 420, 5-(3-(4-chlorophenyl)-7-(3-(3,4-difluorophenyl)azetidine-1-carbonyl)quinoxalin-2-yl)pentanoic acid] | 0.1 to 2
18 | N#Cc1ccc(C2CN(C(=O)c3ccc4nc(-c5ccc(Cl)cc5)c(CCCCC(=O)O)nc4c3)C2)cc1 [compound 421, 5-(3-(4-chlorophenyl)-7-(3-(4-cyanophenyl)azetidine-l-carbonyl)quinoxalin-2-yl)pentanoic acid] | 0.1 to 2
19 | C[C@@H](NC(=O)c1ccc2nc(-c3ccccc3)c(CC3CC(C(=O)O)C3)nc2c1)c1ccc(F)cc1 (stereo partly drawn) [compound 422, (R)-3-((7-((1-(4-fluorophenyl)ethyl)carbamoyl)-3-phenylquinoxalin-2-yl)methyl)cyclobutanecarboxyl acid] | 2.1 to 20
20 | CC(CCCc1nc2cc(C(=O)N3CCN(c4ccccc4)CC3)ccc2nc1-c1ccc(C(F)(F)F)cc1)C(=O)O (stereo not shown) [compound 423, 2-methyl-5-(7-(4-phenylpperazine-1-carbonyl)-3-(4-(trifluoromethyl)phenyl)quinoxalin-2-yl) pentanoic acid] | 2.1 to 20
21 | O=C(O)CCCCc1nc2cc(C(=O)N3CC(c4cccc(Cl)c4)C3)ccc2nc1-c1ccc(Cl)cc1 [compound 425, 5-(3-(4-chlorophenyl)-7-(3-(3-chlorophenyl)azetidine-1-carbonyl)quinoxalin-2-yl)pentanoic acid] | 0.1 to 2
22 | O=C(O)CCCCc1nc2cc(C(=O)N3CC(c4ccc(Cl)cc4)C3)ccc2nc1-c1ccc(Cl)cc1 [compound 426, 5-(3-(4-chlorophenyl)-7-(3-(4-chlorophenyl)azetidine-1-carbonyl)quinoxalin-2-yl)pentanoic acid] | 0.1 to 2
23 | CC(CCCc1nc2cc(C(=O)N[C@H](C)c3ccc(Cl)cc3)ccc2nc1-c1ccc(F)cc1)C(=O)O (stereo partly drawn) [compound 427, 5-(7-(((R)-1-(4-chlorophenyl)ethyl)carbamoyl)-3-(4-fluorophenyl)quinoxalin-2-yl)-2-methylpentanoic acid] | 2.1 to 20
24 | CC(CCCc1nc2cc(C(=O)N[C@@H](C)c3ccc(Cl)cc3)ccc2nc1-c1ccc(F)cc1)C(=O)O (stereo partly drawn) [compound 428, 5-(7-(((S)-1-(4-chlorophenyl)ethyl)carbamoyl)-3-3-(4-fluorophenyl)quinoxalin-2-yl)-2-methylpentanoic acid] | 20.1 to 200
25 | CC(CCc1nc2cc(C(=O)N[C@H](C)c3ccc(F)cc3)ccc2nc1-c1ccc(Cl)cc1)CC(=O)O (stereo partly drawn) [compound 429, 5-(3-(4-chlorophenyl)-7-(((R)-1-(4-fluorophenyl)ethyl)carbamoyl)quinoxalin-2-yl)-3-methylpentanoic acid] | 0.1 to 2
26 | CC(CCc1nc2cc(C(=O)N[C@@H](C)c3ccc(F)cc3)ccc2nc1-c1ccc(F)cc1)CC(=O)O (stereo partly drawn) [compound 430, 5-(3-(4-fluorophenyl)-7-(((S)-1-(4-fluorophenyl)ethyl)carbamoyl)quinoxalin-2-yl)-3-methylpentanoic acid] | 2.1 to 20
27 | CC(CCc1nc2cc(C(=O)N[C@@H]3CCCc4ccccc43)ccc2nc1-c1ccc(F)cc1)CC(=O)O (stereo partly drawn) [compound 431, 5-(3-(4-fluorophenyl)-7-(((R)-1,2,3,4-tetrahydronaphthalen-1-yl)carbamoyl)quinoxalin-2-yl)-3-methylpentanoic acid] | 2.1 to 20
28 | CC(CCc1nc2cc(C(=O)N[C@H](C)c3ccc(F)cc3)ccc2nc1-c1ccc(F)cc1)CC(=O)O (stereo partly drawn) [compound 432, 5-(3-(4-fluorophenyl)-7-(((R)-1-(4-fluorophenyl)ethyl)carbamoyl)quinoxalin-2-yl)-3-methylpentanoic acid] | 0.1 to 2
29 | CC(CCc1nc2cc(C(=O)N[C@H]3CCCc4ccccc43)ccc2nc1-c1ccc(F)cc1)CC(=O)O (stereo partly drawn) [compound 433, 5-(3-(4-fluorophenyl)-7-(((S)-1,2,3,4-tetrahydronaphthalen-1-yl)carbamoyl)quinoxalin-2-yl)-3-methylpentanoic acid] | 2.1 to 20
30 | C[C@@H](NC(=O)c1ccc2nc(-c3ccc(Cl)cc3)c(CCCCC(=O)O)nc2c1)c1ccc(F)cn1 [compound 434, (R)-5-(3-(4-chlorophenyl)-7-((1-(5-fluoropyridin-2-yl)ethyl)carbamoyl)quinoxalin-2-yl)pentanoic acid] | 0.1 to 2
31 | C[C@H](NC(=O)c1ccc2nc(-c3ccc(Cl)cc3)c(CCCCC(=O)O)nc2c1)c1ccc(F)cn1 [compound 435, (S)-5-(3-(4-chlorophenyl)-7-((1-(5-fluoropyridin-2-yl)ethyl)carbamoyl)quinoxalin-2-yl)pentanoic acid] | 0.1 to 2
